Source: patent US8883785B2, “Certain kynurenine-3-monooxygenase inhibitors, pharmaceutical compositions, and methods of use thereof” (CHDI Foundation, Inc., priority 2010, dated 2014)

Tests used:
[1] = target: T1, KMO mouse enzyme (Mus musculus, UniProt Q91WN4); experiment: Mouse KMO enzyme assay: L-kynurenine hydroxylation to 3OH-KYN by LC/MS; format: biochemical; conditions: compound at 10 μM; KMO from mouse liver mitochondria; read-out: INH.Mouse @ 10 μM
T1 construct: KMO enzyme prepared at Evotec from mouse liver (4-6 weeks old) via mitochondria isolation; from tissue; host or cells: mouse liver (4-6 weeks old), mitochondria isolation
Method: Product is quantified by multiple reaction monitoring (MRM method).
IC50's are calculated using automated fitting algorithm (A+Analysis).

[2] = Solubility remark made when LCMS was attempted; format: physicochemical; conditions: solvents for LCMS

T1 sequence (Q91WN4 whole entry): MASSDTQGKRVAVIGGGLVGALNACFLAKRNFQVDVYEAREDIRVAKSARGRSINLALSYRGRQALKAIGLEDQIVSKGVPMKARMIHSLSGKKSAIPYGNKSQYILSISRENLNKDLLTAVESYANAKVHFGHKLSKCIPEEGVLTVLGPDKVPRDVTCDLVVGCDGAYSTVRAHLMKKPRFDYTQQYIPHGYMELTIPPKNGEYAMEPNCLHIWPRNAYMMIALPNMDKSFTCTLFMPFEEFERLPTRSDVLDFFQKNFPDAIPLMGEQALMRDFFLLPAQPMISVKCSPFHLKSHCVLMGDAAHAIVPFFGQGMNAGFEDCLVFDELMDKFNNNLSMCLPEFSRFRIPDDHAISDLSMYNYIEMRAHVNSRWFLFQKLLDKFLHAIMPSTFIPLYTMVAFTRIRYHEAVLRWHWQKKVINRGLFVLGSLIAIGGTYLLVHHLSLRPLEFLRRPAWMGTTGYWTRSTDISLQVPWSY

SMILES	inhibition at 10 µM [1] [%]	solubility [2]
Clc1ccc(-c2cc(-c3nc4ccccc4[nH]3)ncn2)cc1Cl [2-[6-(3,4-dichlorophenyl)pyrimidin-4-yl]-1H-benzimidazole]	49.7	
Clc1cccc(-c2cc(-c3nc4ccccc4o3)ncn2)c1 [2-[6-(3-chlorophenyl)pyrimidin-4-yl]-1,3-benzoxazole]	54.4	
Clc1cccc(-c2cc(-c3nc4ccccc4[nH]3)ncn2)c1 [2-[6-(3-chlorophenyl)pyrimidin-4-yl]-1H-benzimidazole]	102	
O=c1[nH]c(-c2cc(-c3ccc(F)c(F)c3)ncn2)no1 [3-[6-(3,4-Difluoro-phenyl)-pyrimidin-4-yl]-4H-[1,2,4]oxadiazol-5-one]	100	
S=c1[nH]c(-c2cc(-c3ccc(Cl)c(Cl)c3)ncn2)no1 [3-[6-(3,4-dichlorophenyl)pyrimidin-4-yl]-4H-1,2,4-oxadiazole-5-thione]	102	
O=c1[nH]c(-c2cc(-c3ccc(F)c(Cl)c3)ncn2)no1 [3-[6-(3-Chloro-4-fluoro-phenyl)-pyrimidin-4-yl]-4H-[1,2,4]oxadiazol-5-one]	100	
CC(C)Oc1ccc(-c2cc(-c3noc(=O)[nH]3)ncn2)cc1Cl [3-[6-(3-Chloro-4-isopropoxy-phenyl)-pyrimidin-4-yl]-4H-[1,2,4]oxadiazol-5-one]	96	
Cc1ccc(-c2cc(-c3noc(=O)[nH]3)ncn2)cc1Cl [3-[6-(3-Chloro-4-methyl-phenyl)-pyrimidin-4-yl]-4H-[1,2,4]oxadiazol-5-one]	98	
O=c1[nH]c(-c2cc(-c3ccc(OC(F)(F)F)c(Cl)c3)ncn2)no1 [3-[6-(3-Chloro-4-trifluoromethoxy-phenyl)-pyrimidin-4-yl]-4H-[1,2,4]oxadiazol-5-one]	99	
Cc1ccc(-c2cc(-c3noc(=O)[nH]3)ncn2)cc1F [3-[6-(3-Fluoro-4-methyl-phenyl)-pyrimidin-4-yl]-4H-[1,2,4]oxadiazol-5-one]	100	
O=c1[nH]c(-c2cc(-c3cccc(Cl)c3)ncn2)no1 [3-[6-(3-chlorophenyl)pyrimidin-4-yl]-4H-1,2,4-oxadiazol-5-one]	96.3	
O=c1[nH]c(-c2cc(-c3cncc(Cl)c3)ncn2)no1 [3-[6-(5-chloropyridin-3-yl)pyrimidin-4-yl]-4H-1,2,4-oxadiazol-5-one]	65.2	
Clc1ccc(-c2cc(-c3cc[nH]n3)ncn2)cc1Cl [4-(3,4-Dichloro-phenyl)-6-(1H-pyrazol-3-yl)-pyrimidine]	19	
Clc1ccc(-c2cc(-c3ncco3)ncn2)cc1Cl [4-(3,4-Dichloro-phenyl)-6-oxazol-2-yl-pyrimidine]	93	
Clc1ccc(-c2cc(-c3nccs3)ncn2)cc1Cl [4-(3,4-Dichloro-phenyl)-6-thiazol-2-yl-pyrimidine]	48	
Cc1coc(-c2cc(-c3ccc(Cl)c(Cl)c3)nc(C)n2)n1 [4-(3,4-dichlorophenyl)-2-methyl-6-(4-methyl-1,3-oxazol-2-yl)pyrimidine]	46.8	
Clc1ccc(-c2cc(-c3ncc[nH]3)ncn2)cc1Cl [4-(3,4-dichlorophenyl)-6-(1H-imidazol-2-yl)pyrimidine]	99	
Clc1ccc(-c2cc(C3=NCCN3)ncn2)cc1Cl [4-(3,4-dichlorophenyl)-6-(4,5-dihydro-1H-imidazol-2-yl)pyrimidine]	95.5	
Cc1coc(-c2cc(-c3ccc(Cl)c(Cl)c3)ncn2)n1 [4-(3,4-dichlorophenyl)-6-(4-methyl-1,3-oxazol-2-yl)pyrimidine]	101	
Cc1c[nH]c(-c2cc(-c3ccc(Cl)c(Cl)c3)ncn2)n1 [4-(3,4-dichlorophenyl)-6-(4-methyl-1H-imidazol-2-yl)pyrimidine]	92.3	
Clc1ccc(-c2cc(-c3nnc[nH]3)ncn2)cc1Cl [4-(3,4-dichlorophenyl)-6-(4H-1,2,4-triazol-3-yl)pyrimidine]	100	

SMILES	inhibition at 10 µM [1] [%]	solubility [2]
Cc1nc(-c2cc(-c3ccc(Cl)c(Cl)c3)ncn2)no1 [4-(3,4-dichlorophenyl)-6-(5-methyl-1,2,4-oxadiazol-3-yl)pyrimidine]	51	
Cc1nnc(-c2cc(-c3ccc(Cl)c(Cl)c3)ncn2)[nH]1 [4-(3,4-dichlorophenyl)-6-(5-methyl-4H-1,2,4-triazol-3-yl)pyrimidine]	80	
FC(F)(F)c1ccn(-c2cc(-c3ccc(Cl)c(Cl)c3)ncn2)n1 [4-(3,4-dichlorophenyl)-6-[3-(trifluoromethyl)pyrazol-1-yl]pyrimidine]	56.7	
FC(F)(F)c1cn(-c2cc(-c3ccc(Cl)c(Cl)c3)ncn2)cn1 [4-(3,4-dichlorophenyl)-6-[4-(trifluoromethyl)imidazol-1-yl]pyrimidine]	64.4	
FC(F)(F)c1nc(-c2cc(-c3ccc(Cl)c(Cl)c3)ncn2)no1 [4-(3,4-dichlorophenyl)-6-[5-(trifluoromethyl)-1,2,4-oxadiazol-3-yl]pyrimidine]	87	
Fc1ccc(-c2cc(-c3nnn[nH]3)ncn2)cc1F [4-(3,4-difluorophenyl)-6-(1H-tetrazol-5-yl)pyrimidine]	101	
CC(C)Oc1ccc(-c2cc(-c3nnn[nH]3)ncn2)cc1Cl [4-(3-Chloro-4-isopropoxy-phenyl)-6-(1H-tetrazol-5-yl)-pyrimidine]	100	
FC(F)(F)Oc1ccc(-c2cc(-c3nnn[nH]3)ncn2)cc1Cl [4-(3-Chloro-4-trifluoromethoxy-phenyl)-6-(1H-tetrazol-5-yl)-pyrimidine]	100	
Cc1ccc(-c2cc(-c3nnn[nH]3)ncn2)cc1F [4-(3-Fluoro-4-methyl-phenyl)-6-(1H-tetrazol-5-yl)-pyrimidine]	100	
Fc1ccc(-c2cc(-c3nnn[nH]3)ncn2)cc1Cl [4-(3-chloro-4-fluorophenyl)-6-(1H-tetrazol-5-yl)pyrimidine]	103	
Cn1nnnc1-c1cc(-c2cccc(Cl)c2)ncn1 [4-(3-chlorophenyl)-6-(1-methyltetrazol-5-yl)pyrimidine]	65.6	
Clc1cccc(-c2cc(-c3nnn[nH]3)ncn2)c1 [4-(3-chlorophenyl)-6-(1H-tetrazol-5-yl)pyrimidine]	103	
Cn1nnc(-c2cc(-c3cccc(Cl)c3)ncn2)n1 [4-(3-chlorophenyl)-6-(2-methyltetrazol-5-yl)pyrimidine]	91.2	
Cc1noc(-c2cc(-c3cccc(Cl)c3)ncn2)n1 [4-(3-chlorophenyl)-6-(3-methyl-1,2,4-oxadiazol-5-yl)pyrimidine]	91	
Cc1coc(-c2cc(-c3cccc(Cl)c3)ncn2)n1 [4-(3-chlorophenyl)-6-(4-methyl-1,3-oxazol-2-yl)pyrimidine]	101	
Clc1cccc(-c2cc(-c3nnc[nH]3)ncn2)c1 [4-(3-chlorophenyl)-6-(4H-1,2,4-triazol-3-yl)pyrimidine]	102	
O=c1[nH]cc(-c2cc(-c3ccc(Cl)c(Cl)c3)ncn2)[nH]1 [4-[6-(3,4-dichlorophenyl)pyrimidin-4-yl]-1,3-dihydroimidazol-2-one]	105	
Cn1[nH]cc(-c2cc(-c3ccc(Cl)c(Cl)c3)ncn2)c1=O [4-[6-(3,4-dichlorophenyl)pyrimidin-4-yl]-2-methyl-1H-pyrazol-3-one]	73.6	Compound is insuffciently souble in any acceptable solvent in order to obtain a meaningful LCMS 1H NMR (500 MHz, DMSO-d6) d ppm 8.88 (1H, s), 8.44 (1H, br.s.), 8.26 (1H, br.s.), 8.19 (1H, d), 8.06 (1H, br.s.), 7.85 (1H, d), 3.45 (3H, s)
O=c1[nH]nc(-c2cc(-c3ccc(Cl)c(Cl)c3)ncn2)[nH]1 [5-[6-(3,4-dichlorophenyl)pyrimidin-4-yl]-2,4-dihydro-1,2,4-triazol-3-one]	58.1	very unsoluble compound- LCMS unobtainable 1H NMR (250 MHz, DMSO-d6) d ppm 9.27-9.32 (1 H, m), 8.39- 8.47 (2 H, m), 8.17-8.25 (1 H, m), 7.76-7.85 (1 H, m)
CNC(=O)c1ccc(-c2cc(-c3ccc(Cl)c(Cl)c3)ncn2)nc1 [6-[6-(3,4-dichlorophenyl)pyrimidin-4-yl]-N-methylpyridine-3-carboxamide]	39.1	
Clc1cccc(-c2cc(-c3nc4ccc(Cl)cc4[nH]3)ncn2)c1 [6-chloro-2-[6-(3-chlorophenyl)pyrimidin-4-yl]-1H-benzimidazole]	39.1	
